Measurements as given in US20210260010A1, “COMPOSITIONS AND METHODS FOR THE REDUCTION OR TREATMENT OF INFLAMMATION” (AXCELLA HEALTH INC., priority 2018, published 2021).

Experiments:
IL-6 = IL-6 cytokine secretion by TNFα-stimulated primary human hepatic stellate cells (ELISA); assay type: cell-based; conditions: for IL-6 cytokine secretion, per-cell normalized, fold change from plasma amino acid background: primary human hepatic stellate cells, two donors, TNFα 3 ng/mL, 12 hours
Method: Primary human hepatic stellate cells were obtained from Samsara Sciences and grown in Complete HSC Medium to […] confluence in T75 or T150 flasks below passage 10 were seeded into 96-well plates and incubated for 6 hours at 37° C., 5% CO2 in a humidified incubator. After 6 hours, plates were removed from the incubator washed with DPBS and pretreated (±single amino acid dropout, ±supplemental amino acid dose; see experiment for medium composition) overnight, ˜14-15 hours. After overnight pretreatment, the medium was removed from the cells, and the same pretreatment medium, now supplemented with 3 ng/mL TNFα was applied. Plates were incubated for 12 hours at 37° C., 5% CO2. After 12 hour stimulus with TNFα, supernatant was removed and frozen at −80° C. in two separate aliquots. Plates were washed and incubated with CCK-8 viability reagent (Dojindo) for 1 hour. Viability was measured on the Synergy plate reader. Immediately, the medium was removed and the plates were fixed for immunofluorescence staining.
Human CCL2/MCP1 and Human IL-6 were measured by ELISA (Human […] DuoSet ELISA, R&D Systems; Human IL-6 DuoSet ELISA, R&D Systems) at ⅕ and 1/20 dilution in 1× Reagent Diluent (Reagent Ancillary Kit 2, R&D Systems). Data were normalized to the specific per well cell density determined by Hoechst stained nuclei count.
Tables 39-42 show per-cell normalized IL-6 cytokine secretion in primary human hepatic stellate cells from two donors as a fold change from the plasma amino acid background. Statistical significance calculated by one-way ANOVA with Dunnett's multiple comparison test within each treatment group.

MCP1/CCL2 = MCP1/CCL2 secretion by primary human hepatocytes exposed to free fatty acids and TNF-α (ELISA); assay type: cell-based; conditions: for MCP1 expression relative to Control- Donor 1, Mean: donor 1 hepatocytes; for MCP1 expression relative to Control- Donor 1, Mean / MCP1 expression relative to Control- Donor 2, Mean: FFA + TNF-α, baseline subtracted; for MCP1 expression relative to Control- Donor 2, Mean: donor 2 hepatocytes; for MCP1/CCL2 secretion (baseline subtracted): primary human hepatocytes from two healthy donors, FFA 250 uM + TNF-α 1 ng/ml
Method: Hepatocyte lipotoxicity appears to be a central driver of hepatic cellular injury via oxidative stress and endoplasmic reticulum (ER) stress. The ability of amino acids to influence steatosis (lipid accumulation) and inflammation in hepatocytes was assessed using human primary hepatocytes (Lonza, TRL).
Primary hepatocytes lot nos. from two healthy human donors were seeded on day 0 at density of 6e04 cells in 96 well optical microplates (Thermofisher) in hepatocyte plating media (William's E medium (Gibco) supplemented with 10% heat-inactivated FBS (Atlanta Bio), 2 mM Glutamax (Gibco) and 0.2% Primocin (InVivoGen) and incubated for 6 hours at 37° C., 5% CO2. After 6 hours, cells were washed twice and incubated overnight at 37° C., 5% CO2 with Hepatocytes defined medium (Corning) supplemented with 2 mM Glutamax (Gibco) and 1× Penicillin/Streptomycin. On day 1, cells were washed twice and incubated for 24 h in the hepatocyte culture media in the same conditions described above.
On day 2, cells were washed twice with DPBS 1× (Gibco) and maintained in amino acid-free WEM (US Biologicals) containing a defined custom amino acid concentration based on the mean physiological concentrations in blood. The values are published in the Human Metabolome Database (Wishart D S, Tzur D, Knox C, et al., HMDB: the Human Metabolome Database. Nucleic Acids Res. January 2007; 35(Database issue):D521-6. 17202168; which is hereby incorporated by reference in its entirety). This custom media is supplemented with 11 mM Glucose, 0.272 mM Sodium Pyruvate, and a dose curve of defined amino acid compositions (i.e., vehicle, LIVRQ+N-acetylcysteine, LIVRQ, RQ+N-acetylcysteine, N-acetylcysteine alone, LIV, or individually with L-Leucine, L-Isoleucine, L-Valine, L-Arginine, L-Glutamine, and L-Cysteine) at various ranges of concentrations. Cells were maintained in this defined media for 24 hours at 37° C., 5% CO2.
After pre-treatment, cells were exposed to free fatty acids (FFA) at 250 uM with a ratio of 2:1 (Oleate:Palmitate) supplemented with TNF-α (Thermofisher) at 1 ng/ml or vehicle. Cells were incubated with the FFAs mixture and the different amino acids combinations for 24 hours at 37° C., 5% CO2. After 24 hours incubation, media was removed for cytokine analysis and replaced by fresh media containing the same stimulus conditions and amino acid concentrations. Cells were incubated for an additional 48 hours for a total of 72 hours of FFA and TNFα stimulation.
Human CCL2 (MCP-1) was measured by ELISA (Human […] DuoSet ELISA, R&D Systems) at ⅕ or 1/10 dilution in 1× Reagent Diluent (Reagent Ancillary Kit 2, R&D Systems). Data were normalized to the specific per well cell density determined by nuclei count stained by Hoechst 3342 (Life technologies) in the fluorescence microscopy described below.

[1] = Conc. 109 μM (baseline comparator)
[2] = Conc. 749 μM (baseline comparator)
[3] = Conc. 66 μM (baseline comparator)
[4] = Conc. 153 μM (baseline comparator)

N=C(N)NCCC[C@H](N)C(=O)O [Arginine, L-Arginine]
Fold Change IL-6 Secretion Normalized Per Cell (IL-6; donor 1, Conc. 109 μM (plasma background, reference)): 1.0000 | Fold Change IL-6 Secretion Normalized Per Cell (IL-6; donor 1, Conc. 1088 μM): 0.9828 | Fold Change IL-6 Secretion Normalized Per Cell (IL-6; donor 1, Conc. 2720 μM): 1.0231 | Fold Change IL-6 Secretion Normalized Per Cell (IL-6; donor 1, Conc. 5440 μM): 0.7776 | Fold Change IL-6 Secretion Normalized Per Cell (IL-6; donor 2, Conc. 109 μM (plasma background, reference)): 1.0000 | Fold Change IL-6 Secretion Normalized Per Cell (IL-6; donor 2, Conc. 1088 μM): 0.9924 | Fold Change IL-6 Secretion Normalized Per Cell (IL-6; donor 2, Conc. 2720 μM): 0.9401 | Fold Change IL-6 Secretion Normalized Per Cell (IL-6; donor 2, Conc. 5440 μM): 0.8895 | IL-6 cytokine secretion, per-cell normalized, fold change from plasma amino acid background (IL-6): no significant effect | MCP1 expression relative to Control- Donor 1, Mean (MCP1/CCL2; [1]): 2.37E−15 | MCP1 expression relative to Control- Donor 2, Mean (MCP1/CCL2; [1]): −4.7E−15 | MCP1 expression relative to Control- Donor 1, Mean (MCP1/CCL2; Conc. 1088 μM): 5.114 | MCP1 expression relative to Control- Donor 2, Mean (MCP1/CCL2; Conc. 1088 μM): 24.95 | MCP1 expression relative to Control- Donor 1, Mean (MCP1/CCL2; Conc. 2720 μM): 6.527 | MCP1 expression relative to Control- Donor 2, Mean (MCP1/CCL2; Conc. 2720 μM): 24.06 | MCP1 expression relative to Control- Donor 1, Mean (MCP1/CCL2; Conc. 5440 μM): 10.9386 | MCP1 expression relative to Control- Donor 2, Mean (MCP1/CCL2; Conc. 5440 μM): 8.494 | MCP1/CCL2 secretion (baseline subtracted) (MCP1/CCL2): increased

NC(=O)CC[C@H](N)C(=O)O [Glutamine, L-Glutamine]
Fold Change IL-6 Secretion Normalized Per Cell (IL-6; donor 1, Conc. 562 μM (plasma background, reference)): 1.0000 | Fold Change IL-6 Secretion Normalized Per Cell (IL-6; donor 2, Conc. 562 μM (plasma background, reference)): 1.0000 | Fold Change IL-6 Secretion Normalized Per Cell (IL-6; donor 2, Conc. 3747 μM): 0.7100 | IL-6 cytokine secretion, per-cell normalized, fold change from plasma amino acid background (IL-6): significantly reduced | MCP1 expression relative to Control- Donor 1, Mean (MCP1/CCL2; [2]): 0 | MCP1 expression relative to Control- Donor 2, Mean (MCP1/CCL2; [2]): 2.84E−14 | MCP1 expression relative to Control- Donor 1, Mean (MCP1/CCL2; Conc. 3747 μM): −0.8981 | MCP1 expression relative to Control- Donor 2, Mean (MCP1/CCL2; Conc. 3747 μM): −45.0574 | MCP1 expression relative to Control- Donor 1, Mean (MCP1/CCL2; Conc. 11242 μM): −9.001 | MCP1 expression relative to Control- Donor 2, Mean (MCP1/CCL2; Conc. 11242 μM): −90.6558 | MCP1 expression relative to Control- Donor 1, Mean (MCP1/CCL2; Conc. 22484 μM): −21.8392 | MCP1 expression relative to Control- Donor 2, Mean (MCP1/CCL2; Conc. 22484 μM): −138.873 | MCP1/CCL2 secretion (baseline subtracted) (MCP1/CCL2): significantly decrease

CC[C@H](C)[C@H](N)C(=O)O [Isoleucine, L-Isoleucine]
Fold Change IL-6 Secretion Normalized Per Cell (IL-6; donor 1, Conc. 66 μM (plasma background, reference)): 1.0000 | Fold Change IL-6 Secretion Normalized Per Cell (IL-6; donor 2, Conc. 66 μM (plasma background, reference)): 1.0000 | IL-6 cytokine secretion, per-cell normalized, fold change from plasma amino acid background (IL-6): no significant effect | MCP1 expression relative to Control- Donor 1, Mean (MCP1/CCL2; [3]): −1.2E−15 | MCP1 expression relative to Control- Donor 2, Mean (MCP1/CCL2; [3]): 0 | MCP1 expression relative to Control- Donor 1, Mean (MCP1/CCL2; Conc. 1328 μM): −0.3073 | MCP1 expression relative to Control- Donor 2, Mean (MCP1/CCL2; Conc. 1328 μM): 26.62 | MCP1 expression relative to Control- Donor 1, Mean (MCP1/CCL2; Conc. 3320 μM): −2.417 | MCP1 expression relative to Control- Donor 2, Mean (MCP1/CCL2; Conc. 3320 μM): −5.645 | MCP1 expression relative to Control- Donor 1, Mean (MCP1/CCL2; Conc. 6639 μM): −0.205 | MCP1 expression relative to Control- Donor 2, Mean (MCP1/CCL2; Conc. 6639 μM): 18.62 | MCP1/CCL2 secretion (baseline subtracted) (MCP1/CCL2): did not have an effect

CC(C)C[C@H](N)C(=O)O [Leucine, L-Leucine]
Fold Change IL-6 Secretion Normalized Per Cell (IL-6; donor 1, Conc. 153 μM (plasma background, reference)): 1.0000 | Fold Change IL-6 Secretion Normalized Per Cell (IL-6; donor 2, Conc. 153 μM (plasma background, reference)): 1.0000 | IL-6 cytokine secretion, per-cell normalized, fold change from plasma amino acid background (IL-6): no significant effect | MCP1 expression relative to Control- Donor 1, Mean (MCP1/CCL2; [4]): 5.92E−16 | MCP1 expression relative to Control- Donor 2, Mean (MCP1/CCL2; [4]): −4.7E−15 | MCP1 expression relative to Control- Donor 1, Mean (MCP1/CCL2; Conc. 3054 μM): 3.34 | MCP1 expression relative to Control- Donor 2, Mean (MCP1/CCL2; Conc. 3054 μM): 16.11 | MCP1 expression relative to Control- Donor 1, Mean (MCP1/CCL2; Conc. 7635 μM): 1.896 | MCP1 expression relative to Control- Donor 2, Mean (MCP1/CCL2; Conc. 7635 μM): −2.988 | MCP1 expression relative to Control- Donor 1, Mean (MCP1/CCL2; Conc. 15270 μM): −1.368 | MCP1 expression relative to Control- Donor 2, Mean (MCP1/CCL2; Conc. 15270 μM): −26.6436 | MCP1/CCL2 secretion (baseline subtracted) (MCP1/CCL2): did not have an effect
